From patent US10626058B2, “Urea ammonium sulphate-based composition and method for the manufacture thereof” (YARA INTERNATIONAL ASA, priority 2015, dated 2020)
Read-outs that look alike come from different tables or passages of the source.

Type: physicochemical
Settings: for effect of added alkaline compound on stability of nBTPT on UAS: UAS+500 ppm nBTPT powder+2350 ppm rapeseed oil, 12 days open to air storage at 30° C. in an oven; for half-life time for nBTPT: stored in bags at room temperature (20-25° C.)
Description: For lab scale experiments, 1.2 kg of solid fertilizer material was added to a lab scale drum. In a next step, the nBTPT material was slowly added. A residence time of 10 minutes was applied and the rotating speed of the drum was consequently the same in each experiment. In case a moisture repellent coating was added, a nebulizer was used and depending on the order of addition, the moisture repellent coating was added before or after addition of the nBTPT material. Before use, the moisture repellent coating was preheated to 80° C. Larger scale experiments with amounts up to 40 kg of fertilizer material were performed in a concrete mixer.
The samples were stored under several conditions, dependent on the type of samples: • 20° C. closed plastic container with head space (Climate chamber, 80% relative humidity) • Bagged at room temperature (20-25° C.) or in nissenhut • Open to air in nissenhut • Cylinder test in nissenhut • Open pile in nissenhut
For some samples, an accelerated stability test was done storing these samples at elevated temperatures: • Oven of 30° C. closed plastic container • Oven of 30° C. open to air • 30° C./60% RH open to air • 70° C. closed plastic container
Typically, a day/night cycle is generated in the nissenhut, with temperature fluctuations between 0 to 42° C. and fluctuations of relative humidity between 20 and 90%, which can be compared with real life storage in silos.
HPLC analysis of nBTPT is done as described in the procedure CEN 15688-2007.

Structure (SMILES): O=C([O-])[O-].[Ca+2] [calcium carbonate]
- effect of added alkaline compound on stability of nBTPT on UAS: stabilizing effect

Structure (SMILES): [O]=[Ca] [calcium oxide]
- effect of added calcium oxide on stability of nBTPT on UAS (500-2350 ppm calcium oxide, UAS+500 ppm nBTPT powder, 8 days open to air at nissenhut (16-42° C./27-77% relative humidity)): large stabilizing effect
- effect of added alkaline compound on stability of nBTPT on UAS: stabilizing effect

Structure (SMILES): CCCCNP(N)(N)=S [nBTPT, N-(n-butyl) thiophosphoric triamide]
- effect of moisture repellent coating and of solid particulate form on stability of nBTPT on UAS (7 days in closed plastic containers with head space at 20° C./80% relative humidity, FIG. 10): beneficial effect
- effect of calcium oxide addition and of solid particulate form on stability of nBTPT on UAS (16 days in bags at nissenhut (16-42° C./27-77% relative humidity), FIG. 8): beneficial effect
- effect of calcium oxide addition and of bagged storage on stability of nBTPT on UAS (16 days in nissenhut (16-42° C./27-77% relative humidity), FIG. 9): beneficial effect
- effect of calcium oxide, solid particulate form, moisture repellent coating and bagged storage on stability of nBTPT on UAS (16 days in nissenhut (16-42° C./27-77% relative humidity), FIG. 12): beneficial effect
- effect of solid particulate form and of bagged storage on stability of nBTPT on UAS (28 days at room temperature (20-25° C.), FIG. 11): beneficial effect
- effect of bagged versus open to air storage on stability of nBTPT on UAS (solid nBTPT (500 ppm), 28 days at room temperature (20-25° C.)): beneficial effect
- half-life time for nBTPT (solid particulate form on UAS plus alkaline or alkaline-forming compound and moisture repellent coating): 6-12 months
- half-life time for nBTPT (urease inhibitor in liquid form on UAS): only a few days
- half-life time for nBTPT (urease inhibitor in solid particulate form on UAS): up to 4 months

Structure (SMILES): [O]=[Zn] [zinc oxide]
- effect of added alkaline compound on stability of nBTPT on UAS: best effect
